Read-outs that look alike come from different tables or passages of the source.
What was measured:
[1] = molecular target: T1, CHRM5 (Homo sapiens, UniProt P08912); assay: cell-based; parameters: species or system HEK293; Fluo-4 Direct calcium mobilization on FLIPR-Tetra; conditions: Assay=Calcium, agonist mode, % of control agonist
T1 sequence (P08912 1-532): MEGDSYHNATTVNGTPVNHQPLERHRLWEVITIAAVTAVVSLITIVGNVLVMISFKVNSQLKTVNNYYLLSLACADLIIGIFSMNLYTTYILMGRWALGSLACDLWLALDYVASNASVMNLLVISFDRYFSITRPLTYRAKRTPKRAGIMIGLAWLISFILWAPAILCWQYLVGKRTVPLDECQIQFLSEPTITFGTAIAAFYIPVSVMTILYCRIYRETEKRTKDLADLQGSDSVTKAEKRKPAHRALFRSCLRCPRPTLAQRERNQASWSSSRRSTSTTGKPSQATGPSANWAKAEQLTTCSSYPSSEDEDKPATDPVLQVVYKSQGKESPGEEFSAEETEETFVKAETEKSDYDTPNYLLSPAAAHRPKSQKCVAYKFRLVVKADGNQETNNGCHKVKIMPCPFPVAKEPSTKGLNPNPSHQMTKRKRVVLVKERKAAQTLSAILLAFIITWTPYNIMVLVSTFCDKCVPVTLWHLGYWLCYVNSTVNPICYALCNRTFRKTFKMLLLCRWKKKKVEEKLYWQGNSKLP

[2] = molecular target: T2, CHRM1 (Homo sapiens, UniProt P11229); assay: cell-based; parameters: species or system HEK293; Fluo-4 Direct calcium mobilization on FLIPR-Tetra; conditions: Assay=Calcium, agonist mode, % of control agonist
T2 sequence (P11229 1-460): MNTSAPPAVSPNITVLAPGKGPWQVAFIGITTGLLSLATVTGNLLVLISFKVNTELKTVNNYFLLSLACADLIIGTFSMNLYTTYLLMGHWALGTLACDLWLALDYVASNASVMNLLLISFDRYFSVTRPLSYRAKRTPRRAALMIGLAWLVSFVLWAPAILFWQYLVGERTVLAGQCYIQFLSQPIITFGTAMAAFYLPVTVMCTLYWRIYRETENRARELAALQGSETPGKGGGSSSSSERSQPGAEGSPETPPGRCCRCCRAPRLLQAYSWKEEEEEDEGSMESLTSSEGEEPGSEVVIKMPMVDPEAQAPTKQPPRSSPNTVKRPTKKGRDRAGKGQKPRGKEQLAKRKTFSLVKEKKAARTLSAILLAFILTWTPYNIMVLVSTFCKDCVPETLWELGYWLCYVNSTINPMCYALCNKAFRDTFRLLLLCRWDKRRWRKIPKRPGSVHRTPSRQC

[3] = molecular target: CHRM3 (Homo sapiens, UniProt P20309); assay: cell-based; parameters: species or system HEK293; Fluo-4 Direct calcium mobilization on FLIPR-Tetra; conditions: Assay=Calcium, agonist mode, % of control agonist
CHRM3, sequence (P20309 whole entry): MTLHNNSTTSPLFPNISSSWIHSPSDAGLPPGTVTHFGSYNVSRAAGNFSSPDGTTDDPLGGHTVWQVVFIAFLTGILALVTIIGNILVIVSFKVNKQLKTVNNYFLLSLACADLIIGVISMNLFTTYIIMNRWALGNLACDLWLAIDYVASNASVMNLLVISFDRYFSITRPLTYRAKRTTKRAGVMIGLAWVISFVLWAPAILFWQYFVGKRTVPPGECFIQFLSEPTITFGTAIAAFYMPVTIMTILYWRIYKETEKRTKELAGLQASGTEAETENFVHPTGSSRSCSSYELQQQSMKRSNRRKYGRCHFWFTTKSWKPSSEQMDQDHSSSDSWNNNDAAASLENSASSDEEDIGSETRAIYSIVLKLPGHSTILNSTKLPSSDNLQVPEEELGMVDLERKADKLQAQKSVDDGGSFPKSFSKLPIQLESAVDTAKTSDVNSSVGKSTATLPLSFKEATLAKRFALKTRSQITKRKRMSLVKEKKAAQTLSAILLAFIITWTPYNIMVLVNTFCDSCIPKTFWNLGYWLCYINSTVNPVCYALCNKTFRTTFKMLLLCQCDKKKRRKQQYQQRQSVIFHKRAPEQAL

[4] = molecular target: T3, H1 (Homo sapiens, UniProt P35367); assay: competitive radioligand binding, HEK293 membranes
T3 construct: gene HRH1; full-length receptor; HEK293 cell membranes
T3 sequence (P35367 whole entry): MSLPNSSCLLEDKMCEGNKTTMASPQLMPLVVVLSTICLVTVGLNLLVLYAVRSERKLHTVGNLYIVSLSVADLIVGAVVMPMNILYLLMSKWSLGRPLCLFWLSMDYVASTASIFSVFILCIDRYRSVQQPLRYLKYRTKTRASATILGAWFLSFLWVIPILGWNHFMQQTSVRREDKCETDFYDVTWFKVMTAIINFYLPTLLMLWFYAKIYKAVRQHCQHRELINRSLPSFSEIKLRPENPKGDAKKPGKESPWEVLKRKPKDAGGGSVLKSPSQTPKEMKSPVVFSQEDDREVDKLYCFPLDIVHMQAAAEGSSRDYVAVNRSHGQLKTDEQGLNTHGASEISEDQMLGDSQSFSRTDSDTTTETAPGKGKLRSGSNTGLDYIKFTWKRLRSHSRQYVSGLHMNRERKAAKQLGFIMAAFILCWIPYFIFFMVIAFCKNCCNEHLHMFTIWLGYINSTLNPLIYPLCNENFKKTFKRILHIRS
Excerpt: competitive radioligand binding, HEK293 membranes on H1

[5] = molecular target: T4, 5-HT2B (Homo sapiens, UniProt P41595); assay: competitive radioligand binding, HEK293 membranes
T4 construct: gene HTR2B; full-length receptor; HEK293 cell membranes
T4 sequence (P41595 whole entry): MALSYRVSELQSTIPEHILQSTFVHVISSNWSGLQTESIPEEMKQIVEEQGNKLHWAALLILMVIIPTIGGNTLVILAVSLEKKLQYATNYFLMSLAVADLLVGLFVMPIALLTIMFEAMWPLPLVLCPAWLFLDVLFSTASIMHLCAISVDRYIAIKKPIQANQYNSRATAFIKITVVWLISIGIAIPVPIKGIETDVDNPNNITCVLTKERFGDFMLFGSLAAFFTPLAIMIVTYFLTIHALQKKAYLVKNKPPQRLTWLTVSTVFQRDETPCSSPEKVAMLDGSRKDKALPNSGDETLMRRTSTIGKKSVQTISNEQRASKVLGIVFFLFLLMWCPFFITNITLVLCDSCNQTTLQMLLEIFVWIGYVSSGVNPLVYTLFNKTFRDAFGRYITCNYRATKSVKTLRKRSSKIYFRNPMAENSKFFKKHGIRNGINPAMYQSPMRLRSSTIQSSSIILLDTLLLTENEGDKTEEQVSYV
Excerpt: competitive radioligand binding, HEK293 membranes on 5-HT2B

[6] = molecular target: T5, H2 (Homo sapiens, UniProt P25021); assay: competitive radioligand binding, HEK293 membranes
T5 construct: gene HRH2; full-length receptor; HEK293 cell membranes
T5 sequence (P25021 whole entry): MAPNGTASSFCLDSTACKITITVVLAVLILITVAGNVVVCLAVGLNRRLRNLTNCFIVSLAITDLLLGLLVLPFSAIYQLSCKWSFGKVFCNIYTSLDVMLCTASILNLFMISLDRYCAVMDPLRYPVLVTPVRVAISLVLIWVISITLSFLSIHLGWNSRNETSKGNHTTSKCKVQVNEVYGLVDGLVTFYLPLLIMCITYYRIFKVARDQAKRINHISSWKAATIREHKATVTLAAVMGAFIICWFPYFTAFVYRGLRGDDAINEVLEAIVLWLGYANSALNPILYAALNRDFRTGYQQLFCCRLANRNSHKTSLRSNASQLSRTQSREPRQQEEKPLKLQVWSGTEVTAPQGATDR
Excerpt: competitive radioligand binding, HEK293 membranes on H2

[7] = molecular target: T6, CHRM2 (Homo sapiens, UniProt P08172); assay: cell-based; parameters: species or system HEK293; GloSensor-22F cAMP assay, Gi-mediated inhibition of isoproterenol-stimulated cAMP; antagonist mode against agonist EC80; conditions: Assay=Gi, agonist mode, % of control agonist
T6 sequence (P08172 1-466): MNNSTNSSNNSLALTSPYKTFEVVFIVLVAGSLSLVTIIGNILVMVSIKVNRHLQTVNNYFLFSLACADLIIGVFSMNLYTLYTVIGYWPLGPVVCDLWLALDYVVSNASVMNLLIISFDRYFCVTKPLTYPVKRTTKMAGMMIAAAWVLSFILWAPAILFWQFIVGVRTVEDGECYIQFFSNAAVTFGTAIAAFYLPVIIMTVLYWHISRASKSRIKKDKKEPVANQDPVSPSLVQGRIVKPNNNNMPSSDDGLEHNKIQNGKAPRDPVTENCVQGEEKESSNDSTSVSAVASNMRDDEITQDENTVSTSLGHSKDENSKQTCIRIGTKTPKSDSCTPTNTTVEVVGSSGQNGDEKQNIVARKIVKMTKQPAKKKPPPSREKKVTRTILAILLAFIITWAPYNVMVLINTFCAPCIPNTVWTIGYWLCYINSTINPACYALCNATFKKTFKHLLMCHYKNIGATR

[8] = molecular target: T7, CHRM4 (Homo sapiens, UniProt P08173); assay: cell-based; parameters: species or system HEK293; GloSensor-22F cAMP assay, Gi-mediated inhibition of isoproterenol-stimulated cAMP; antagonist mode against agonist EC80; conditions: Assay=Gi, agonist mode, % of control agonist
T7 sequence (P08173 1-479): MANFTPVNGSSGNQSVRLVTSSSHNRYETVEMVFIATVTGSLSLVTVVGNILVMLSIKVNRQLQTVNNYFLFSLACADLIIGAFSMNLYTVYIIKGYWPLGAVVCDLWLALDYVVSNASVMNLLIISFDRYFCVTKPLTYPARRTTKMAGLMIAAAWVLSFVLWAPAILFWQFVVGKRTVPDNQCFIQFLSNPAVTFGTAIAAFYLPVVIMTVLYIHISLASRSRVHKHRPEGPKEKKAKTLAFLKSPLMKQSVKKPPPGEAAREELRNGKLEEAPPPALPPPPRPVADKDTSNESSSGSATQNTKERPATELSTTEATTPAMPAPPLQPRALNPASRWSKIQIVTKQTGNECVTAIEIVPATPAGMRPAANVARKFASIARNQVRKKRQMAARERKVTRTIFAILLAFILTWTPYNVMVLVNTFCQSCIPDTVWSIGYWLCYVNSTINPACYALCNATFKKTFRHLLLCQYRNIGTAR

[9] = molecular target: T8, 5-HT1D (Homo sapiens, UniProt P28221); assay: TRUPATH BRET2 G protein dissociation, HEK293; assay type: cell-based; conditions: HBSS, […] HEPES pH […] °C; agonist mode
T8 construct: gene HTR1D; full-length receptor; HEK293 with TRUPATH sensors (function)
T8 sequence (P28221 whole entry): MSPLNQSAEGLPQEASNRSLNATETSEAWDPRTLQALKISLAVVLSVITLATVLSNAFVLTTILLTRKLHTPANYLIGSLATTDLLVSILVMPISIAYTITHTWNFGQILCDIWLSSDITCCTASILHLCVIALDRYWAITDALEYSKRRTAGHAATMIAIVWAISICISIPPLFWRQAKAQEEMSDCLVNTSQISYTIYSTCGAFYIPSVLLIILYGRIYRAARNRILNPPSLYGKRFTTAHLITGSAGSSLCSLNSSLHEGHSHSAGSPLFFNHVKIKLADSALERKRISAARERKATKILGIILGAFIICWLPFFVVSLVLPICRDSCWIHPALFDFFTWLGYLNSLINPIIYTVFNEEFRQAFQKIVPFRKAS

[10] = HEK293, read-out: N-Desmethyl Xanomeline

Row | Structure (SMILES) | Emax ([1]; HEK293, read-out: Xanomeline) [%] | Emax ([2]; HEK293, read-out: Xanomeline) [%] | Emax ([3]; HEK293, read-out: Xanomeline) [%] | Ki [4] [nM] | Ki [5] [nM] | Ki [6] [nM] | Emax ([7]; HEK293, read-out: Xanomeline) [%] | Emax ([8]; HEK293, read-out: Xanomeline) [%] | EC50 [9] | Emax [1, 10] [%] | Emax [2, 10] [%] | Emax [3, 10] [%] | Emax [7, 10] [%] | Emax [8, 10] [%]
1 | CCCCCCOc1nsnc1C1=CCCN(C)C1 [Xanomeline] | 35.4 | 25.6 | 41 | 100 | 39.8 | 347 | 85.9 | 87.2 | full or partial agonists at 5-HT1D and 5-HT1A in a transducer-dependent fashion |  |  |  |  | 
2 | CCCCCCOc1nsnc1C1=CCCNC1 [N-desmethylxanomeline] |  |  |  | 724 | 15.8 | 1020 |  |  | full or partial agonists at 5-HT1D and 5-HT1A in a transducer-dependent fashion | 31.9 | 24.3 | 39 | 107 | 84.4

From doi:10.1101/2025.11.20.689572v1 (biorxiv, 2025)
